Test results published in patent US12577219B2, “Macrolide brefeldin a ester derivatives and use thereof” (OCEAN UNIVERSITY OF CHINA, priority 2019, dated 2026).
In brackets after ≈: the same amount, converted by molar mass.

Key:
[1] = system: Human cervical cancer Hela cells; experiment: Cell proliferation assay (CCK-8); assay type: cell-based; conditions: 72 h
Description: (§1) CCK-8 method: The CCK-8 method is a highly sensitive, non-radioactive colorimetric assay for the determination of the number of viable cells in cell proliferation or cytotoxicity assays. The orange formazan dye produced by the bioreduction of CCK-8 by intracellular dehydrogenase is soluble in the cell culture medium, and the amount of formazan dye produced is proportional to the number of living cells. The kit used in this method is the tetrazolium salt-WST-8 (2-(2-methoxy-4-nitrophenyl)-3-(4-nitrophenyl)-5-(2,4-disulfophenyl)-2H-tetrazolium monosodium salt) developed by Dojindo Chemical Research Institute (Dojindo), which is capable of being reduced to a water-soluble formazan dye in the presence of the electronic carrier 1-Methoxy PMS.
(§2) Human cervical cancer Hela cells, pancreatic cancer PANC-1cells, esophageal cancer Eca-109 cells, human leukemia K562 cells, human lung cancer A549 cells, human liver cancer HepG2 cells, human gastric cancer MKN-45 cells, human breast cancer MCF7 cells were cultured in DMEM medium containing 10% FBS (fetal bovine serum), 100 U/mL penicillin and 100 μg/ml streptomycin. Hepatocellular carcinoma cells Bel-7402 were cultured in RPMI-1640 medium containing 10% FBS (fetal bovine serum), 100 U/ml penicillin and 100 μg/ml streptomycin. All cells were placed in a cell culture incubator at 37° C. with 5% CO2. Cells fluid was changed every 3-5 days, and after 80% cell fusion, trypsin digestion and passaging were performed to keep the cells in good logarithmic growth phase.
(§3) All the samples to be tested were dissolved in DMSO.
(§4) Cells in logarithmic growth phase were inoculated in 96-well plates with 5000 cells/well respectively, and after 24 h of incubation, samples were added (final concentrations as shown in the table), and biplicate wells were set up for each sample. The amount of solvent of DMSO was not higher than 2%. After 72 h, 10 μL of CCK-8 solution was added to each well and incubated for 1.5˜3 h at 37° C. The OD value at 450 nm was measured on an plate reader. Inhibition rate (%)=(1−[(OD450 dosed well−OD450 blank well)/(OD450 control well−OD450 blank well)])×100%
(§5) The fitted IC50 values were calculated using the log (inhibitor) vs. response—Variable slop analysis method in GraphPad Prism software.

[2] = system: human breast cancer MCF7 cells; experiment: Cell proliferation assay (CCK-8); assay type: cell-based; conditions: MCF7, 72 h
Description: as §1, §2, §3, §4, §5

[3] = system: human gastric cancer MKN-45 cells; experiment: Cell proliferation assay (CCK-8); assay type: cell-based; conditions: MKN-45, 72 h
Description: as §1, §2, §3, §4, §5

[4] = system: human leukemia K562 cells; experiment: Cell proliferation assay (CCK-8); assay type: cell-based; conditions: K562, 72 h
Description: as §1, §2, §3, §4, §5

[5] = system: human liver cancer HepG2 cells; experiment: Cell proliferation assay (CCK-8); assay type: cell-based; conditions: HepG2, 72 h
Description: as §1, §2, §3, §4, §5

[6] = system: human lung cancer A549 cells; experiment: Cell proliferation assay (CCK-8); assay type: cell-based; conditions: A549, 72 h
Description: as §1, §2, §3, §4, §5

[7] = system: esophageal cancer Eca-109 cells; experiment: Cell proliferation assay (CCK-8); assay type: cell-based, human; conditions: Eca-109, 72 h
Description: as §1, §2, §3, §4, §5

[8] = system: pancreatic cancer PANC-1cells; experiment: Cell proliferation assay (CCK-8); assay type: cell-based, human; conditions: PANC-1, 72 h
Description: as §1, §2, §3, §4, §5

[9] = Solubility test (shaker 37° C., 24 h, HPLC); conditions: 37° C., 24 h, x ± s, n = 3
Method: The term “solubility” refers to the mass of solute dissolved when a solid substance reaches saturation state in 100 g solvent at a certain temperature.
Methods: Excess BFA and the compounds disclosed herein were added to 10 mL of three solvents, methanol, acetone and 5% DMSO+95% H2O, respectively, and shaken on a shaker at 37° C. at 100 r/min for 24 h. After 24 h, the samples were centrifuged at 15,000 r/min for 15 min to remove the undissolved compounds. The supernatant was filtered using a 0.45 μm membrane filter. The supernatant was appropriately diluted with methanol and contents of the compounds were determined by HPLC method to calculate the solubility.

[10] = system: Kunming breed mice; experiment: Toxicity test after intraperitoneal administration to mice; assay type: in vivo; conditions: ip.; for Organ abnormality at anatomy: anatomy on the 14 th day; for Mental condition of the animals after administration: high and low doses; for Deaths after administration: high and low doses (BFA effective amount conversion), 14 d
Procedure: Objective: Observation of toxic effects of compounds after intraperitoneally administration (ip.) to mice
1) Agents: Compounds disclosed herein were formulated to a suitable concentration.
2) Animals: Kunming breed mice, weight 18-22 g, male. Provided by Jinan Pengyue Laboratory Animal Breeding Co., Ltd. Animal license number: SCXK (Shandong 20140007)
Method: Kunming breed mice, were randomly grouped by weight, 6 mice per group, namely normal control group, BFA high and low dose groups (100 mg/kg and 50 mg/kg, respectively), and high and low dose groups of some compounds disclosed herein (BFA effective amount conversion). […] After 14 d of continuous administration, all the animals were weighed, and the animals were executed to observe whether there were any abnormalities in the organs.

Which IC50 ([1]; Homo sapiens) does the source give for `COc1cccc2c1C(=O)c1c(O)c3c(c(O)c1C2=O)C[C@@](O)(C(=O)CO)C[C@@H]3O[C@H]1C[C@H](N)[C@H](O)[C@H](C)O1` [Adriamycin] here?
The IC50 was 100 to 1000 nM.

And the IC50 ([2]; Homo sapiens)?
Its IC50 is 1000 to 10000 nM.

What about the IC50 ([3]; Homo sapiens) of the same compound?
Its IC50 is 100 to 1000 nM.

And the IC50 ([4]; Homo sapiens)?
The IC50 was 1000 to 10000 nM.

What about the IC50 ([5]; Homo sapiens) of the same compound?
The IC50 was > 10000 nM.

What about the IC50 ([6]; Homo sapiens) of the same compound?
The IC50 was 100 to 1000 nM.

What about the IC50 ([7]; Homo sapiens) of the same compound?
The IC50 was 100 to 1000 nM.

And the IC50 ([8]; Homo sapiens)?
Its IC50 is < 100 nM.

For `C[C@H]1CCC/C=C/[C@@H]2C[C@H](O)C[C@H]2[C@H](O)/C=C/C(=O)O1` [BFA, Brefeldin A], which IC50 [1] is on record?
The IC50 was 100 to 1000 nM.

What about the IC50 [2] of the same compound?
The IC50 was < 100 nM.

And the IC50 [3]?
Its IC50 is 100 to 1000 nM.

What about the IC50 [4] of the same compound?
Its IC50 is 100 to 1000 nM.

What about the IC50 [5] of the same compound?
Its IC50 is 100 to 1000 nM.

And the IC50 [6]?
The IC50 was 100 to 1000 nM.

And the IC50 [7]?
The IC50 was 100 to 1000 nM.

And the IC50 [8]?
The IC50 was < 100 nM.

What about the “Solubility, 5% DMSO + 95% H2O” value ([9]; 5% DMSO + 95% H2O) of the same compound?
Its value is 0.085 ± 0.03 mg/mL.

What about the “Solubility, Acetone” value ([9]; acetone) of the same compound?
Its value is 3.13 ± 1.24 mg/mL (≈ 11.2 mM).

What about the “Solubility, Methanol” value ([9]; methanol) of the same compound?
Its value is 3.13 ± 1.24 mg/mL (≈ 11.2 mM).

Which “Organ abnormality at anatomy” value [10] does the source give for `C[C@H]1CCC/C=C/[C@@H]2C[C@H](OC(=O)/C=C/c3cccc(F)c3)C[C@H]2[C@H](O)/C=C/C(=O)O1` [Compound 1a, 7-O-(3-fluorocinnamic acid)acyl BFA] here?
Its value is “no significant abnormality in all organs”.

And the “Mental condition of the animals after administration” value (shortened to “Mental condition of the animals”) [10]?
The value was “good mental condition”.

And the Deaths after administration [10]?
The Deaths after administration was “no deaths”.

With `C[C@H]1CCC/C=C/[C@@H]2C[C@H](O)C[C@H]2[C@H](OC(=O)/C=C/c2cccc(F)c2)/C=C/C(=O)O1` [Compound 1b, 4-O-(3-fluorocinnamic acid)acyl BFA] as the compound, how does the “Organ abnormality at anatomy” value [10] read?
Its value is “no significant abnormality in all organs”.

What about the “Mental condition of the animals” value [10] of the same compound?
The value was “good mental condition”.

And the Deaths after administration [10]?
The Deaths after administration was “no deaths”.

What does the source list for `C[C@H]1CCC/C=C/[C@@H]2C[C@H](OC(=O)/C=C/c3cccc(F)c3)C[C@H]2[C@H](OC(=O)/C=C/c2cccc(F)c2)/C=C/C(=O)O1` [Compound 1c, 4,7-O-bis(3-fluorocinnamic acid)acyl BFA]?
Organ abnormality at anatomy [10]: no significant abnormality in all organs; Mental condition of the animals after administration [10]: good mental condition; Deaths after administration [10]: no deaths

Which results are given for `C[C@H]1CCC/C=C/[C@@H]2C[C@H](O)C[C@H]2[C@H](OC(=O)/C=C/c2ccc3c(c2)OCO3)/C=C/C(=O)O1` [Compound 9b, 4-O-((E)-3-(benzo[d][1,3]dioxa-5-yl)acrylic acid)acyl BFA]?
IC50 [1]: 1000 to 10000 nM; IC50 [2]: 100 to 1000 nM; IC50 [3]: 100 to 1000 nM; IC50 [4]: 100 to 1000 nM; IC50 [5]: 1000 to 10000 nM; IC50 [6]: 100 to 1000 nM; IC50 [7]: 1000 to 10000 nM; IC50 [8]: 100 to 1000 nM

What does the source list for `C[C@H]1CCC/C=C/[C@@H]2C[C@H](OC(=O)/C=C/c3ccc(N(C)C)cc3)C[C@H]2[C@H](O)/C=C/C(=O)O1` [Compound 10a, 7-O-(4-dimethylaminocinnamic acid)acyl BFA]?
Organ abnormality at anatomy [10]: no significant abnormality in all organs; Mental condition of the animals after administration [10]: good mental condition; Deaths after administration [10]: no deaths

With `C[C@H]1CCC/C=C/[C@@H]2C[C@H](O)C[C@H]2[C@H](OC(=O)/C=C/c2ccc(N(C)C)cc2)/C=C/C(=O)O1` [Compound 10b, 4-O-(4-dimethylaminocinnamic acid)acyl BFA] as the compound, how does the “Organ abnormality at anatomy” value [10] read?
The value was “no significant abnormality in all organs”.

What about the “Mental condition of the animals” value [10] of the same compound?
Its value is “good mental condition”.

And the Deaths after administration [10]?
Its Deaths after administration is “no deaths”.
